Values joined by “and” are separate entries in the source; they are usually repeats but may differ in a detail not shown here. Equal entries are not always repeated. Square brackets hold non-standard residues; d marks the D form. Peptide text beside a SMILES is read from it. Ava = NCCCCC(=O)O
What was measured:
Format in all cases: cell-based
HIV-1 NL 4-3 [1] = assay: HIV-1 infection of C8166 cells (syncytia formation, p24 ELISA) with HIV-1 NL 4-3; parameters: key: ++, +, (+), (+)− and − represent decreasing numbers of syncitia formed; ++, +, (+), (+)− and − represent decreasing numbers of syncitia formed; ++, +, (+), (+)− and − represent decreasing numbers of syncitia formed; ++, +, (+), (+)− and − represent decreasing numbers of syncitia formed; ++, +, (+), (+)− and − represent decreasing numbers of syncitia formed; settings: Table 6
Protocol: (§1) HIV-1 NL 4-3 isolate (Adachi et al., 1986; Barré-Sinoussi et al., 1983) and highly cytopathic Zairian HIV-1 NDK isolate (Ellrodt et al., 1984) was propagated in permissive CEM cells (Nara et al., 1987). Uninfected CEM and C8166 (Salahuddin et al., 1983) were maintained in RPMI 1640 (R10) with ultraglutamine (cambrex, Vervier, Belgium), penicillin (100 U/ml), streptomycin (100 μg/ml), and 10% heat-inactivated fetal calf serum (Cambrex).
(§2) Samples of 3×10^5/100 μL C8166 cells were preincubated in 96-well microtiter plates in culture medium containing various concentrations of peptide. After a 1 h treatment at 37° C., 100 μl of diluted viral solution of HIV-1 was added. The cells were exposed to the virus for 1 h at 37° C. at a multiplicity of infection of 1000 TCID50 per ml. The cells were washed three times and cultured at 3×10^5/ml of R10 with the treatment in 24-well plates incubated at 37° C. C8166 culture medium was replaced at Day-4 post-infection. The treatment was permanent before virus adsorption, during virus adsorption and after infection. Assays on C8166 cells have been performed at least twice and in duplicate. Toxicity was evaluated by daily cell count and trypan-blue exclusion assay. Infection of C8166 T-cells with HIV-1 was assessed by virus-induced cytopathic effects (syncytia formation) and by quantification of cell free p24 viral protein in the culture supernatants. Measurements of HIV-1 p24^gag concentration in the culture supernatants were achieved by ELISA (ALLIANCE® HIV-1 p24 kit, Perkin Elmer, life sciences, USA).

HIV-1 NDK = assay: HIV-1 infection of C8166 cells (syncytia formation, p24 ELISA) with HIV-1 NDK; parameters: key to syncitia formed, Day 4 / syncitia formed, Day 5 / syncitia formed, Day 6 / syncitia formed, Day 7: ++, +, (+), (+)− and − represent decreasing numbers of syncitia formed; ++, +, (+), (+)− and − represent decreasing numbers of syncitia formed; ++, +, (+), (+)− and − represent decreasing numbers of syncitia formed; ++, +, (+), (+)− and − represent decreasing numbers of syncitia formed; ++, +, (+), (+)− and − represent decreasing numbers of syncitia formed; settings: for P 24: P 24 after Day 7
Protocol: as §1, §2

HIV-1 NL 4-3 [2] = assay: HIV-1 infection of C8166 cells (syncytia formation, p24 ELISA) with HIV-1 NL 4-3; parameters: key to syncitia formed, Day 4 / syncitia formed, Day 5 / syncitia formed, Day 6 / syncitia formed, Day 7: ++, +, (+), (+)− and − represent decreasing numbers of syncitia formed; ++, +, (+), (+)− and − represent decreasing numbers of syncitia formed; ++, +, (+), (+)− and − represent decreasing numbers of syncitia formed; ++, +, (+), (+)− and − represent decreasing numbers of syncitia formed; ++, +, (+), (+)− and − represent decreasing numbers of syncitia formed
Protocol: as §1, §2

[3] = C8166 cells, HIV-1 subtype B NL 4-3, Table 9, two lines = tested twice, 8 days apart

NCC(=O)N1CCC[C@H]1C(=O)NCC(=O)NCCCCC(=O)O [GPG valeric acid, GPG-NHCH2CH2CH2CH2COOH] (H-GPG[Ava]-OH; N-terminus assumed)
Day 4 syncitia formed (HIV-1 NL 4-3 [1]; 0.005 μM): −
Day 5 syncitia formed (HIV-1 NL 4-3 [1]; 0.005 μM): +
Day 6 syncitia formed (HIV-1 NL 4-3 [1]; 0.005 μM): ++
Day 4 syncitia formed (HIV-1 NL 4-3 [1]; 0.01 μM): −
Day 5 syncitia formed (HIV-1 NL 4-3 [1]; 0.01 μM): +
Day 6 syncitia formed (HIV-1 NL 4-3 [1]; 0.01 μM): +
Day 7 syncitia formed (HIV-1 NL 4-3 [1]; 0.01 μM): ++
Day 4 syncitia formed (HIV-1 NL 4-3 [1]; 0.05 μM): −
Day 5 syncitia formed (HIV-1 NL 4-3 [1]; 0.05 μM): −
Day 6 syncitia formed (HIV-1 NL 4-3 [1]; 0.05 μM): (+)
Day 7 syncitia formed (HIV-1 NL 4-3 [1]; 0.05 μM): +
Day 4 syncitia formed (HIV-1 NL 4-3 [1]; 0.1 μM): −
Day 5 syncitia formed (HIV-1 NL 4-3 [1]; 0.1 μM): −
Day 6 syncitia formed (HIV-1 NL 4-3 [1]; 0.1 μM): (+)
Day 7 syncitia formed (HIV-1 NL 4-3 [1]; 0.1 μM): +
Day 4 syncitia formed (HIV-1 NL 4-3 [1]; 0.5 μM): −
Day 5 syncitia formed (HIV-1 NL 4-3 [1]; 0.5 μM): −
Day 6 syncitia formed (HIV-1 NL 4-3 [1]; 0.5 μM): −
Day 7 syncitia formed (HIV-1 NL 4-3 [1]; 0.5 μM): −
Day 4 syncitia formed (HIV-1 NL 4-3 [1]; 1 μM): −
Day 5 syncitia formed (HIV-1 NL 4-3 [1]; 1 μM): −
Day 6 syncitia formed (HIV-1 NL 4-3 [1]; 1 μM): −
Day 7 syncitia formed (HIV-1 NL 4-3 [1]; 1 μM): −
Day 4 syncitia formed (HIV-1 NL 4-3 [1]; 5 μM): −
Day 5 syncitia formed (HIV-1 NL 4-3 [1]; 5 μM): −
Day 6 syncitia formed (HIV-1 NL 4-3 [1]; 5 μM): −
Day 7 syncitia formed (HIV-1 NL 4-3 [1]; 5 μM): −
syncitia formed, Day 4 (HIV-1 NDK; 0.005 μM): (+)
syncitia formed, Day 5 (HIV-1 NDK; 0.005 μM): +
syncitia formed, Day 6 (HIV-1 NDK; 0.005 μM): ++
syncitia formed, Day 7 (HIV-1 NDK; 0.005 μM): ++
P 24 (HIV-1 NDK; 0.005 μM): 23810 pg/mL
syncitia formed, Day 4 (HIV-1 NDK; 0.01 μM): (+)
syncitia formed, Day 5 (HIV-1 NDK; 0.01 μM): +
syncitia formed, Day 6 (HIV-1 NDK; 0.01 μM): ++
syncitia formed, Day 7 (HIV-1 NDK; 0.01 μM): ++
P 24 (HIV-1 NDK; 0.01 μM): 23810 pg/mL
syncitia formed, Day 4 (HIV-1 NDK; 0.05 μM): −
syncitia formed, Day 5 (HIV-1 NDK; 0.05 μM): (+)
syncitia formed, Day 6 (HIV-1 NDK; 0.05 μM): ++
syncitia formed, Day 7 (HIV-1 NDK; 0.05 μM): ++
P 24 (HIV-1 NDK; 0.05 μM): 11810 pg/mL and 15879 pg/mL
syncitia formed, Day 4 (HIV-1 NDK; 0.1 μM): −
syncitia formed, Day 5 (HIV-1 NDK; 0.1 μM): −
syncitia formed, Day 6 (HIV-1 NDK; 0.1 μM): +
syncitia formed, Day 7 (HIV-1 NDK; 0.1 μM): ++
P 24 (HIV-1 NDK; 0.1 μM): 3507 pg/mL and 3670 pg/mL
syncitia formed, Day 4 (HIV-1 NDK; 0.5 μM): −
syncitia formed, Day 5 (HIV-1 NDK; 0.5 μM): −
syncitia formed, Day 6 (HIV-1 NDK; 0.5 μM): +
syncitia formed, Day 7 (HIV-1 NDK; 0.5 μM): ++
P 24 (HIV-1 NDK; 0.5 μM): 2578 pg/mL and 3140 pg/mL
syncitia formed, Day 4 (HIV-1 NDK; 1 μM): −
syncitia formed, Day 5 (HIV-1 NDK; 1 μM): −
syncitia formed, Day 6 (HIV-1 NDK; 1 μM): −
syncitia formed, Day 7 (HIV-1 NDK; 1 μM): +
P 24 (HIV-1 NDK; 1 μM): 2810 pg/mL and 1840 pg/mL
syncitia formed, Day 4 (HIV-1 NDK; 5 μM): −
syncitia formed, Day 5 (HIV-1 NDK; 5 μM): −
syncitia formed, Day 6 (HIV-1 NDK; 5 μM): −
syncitia formed, Day 7 (HIV-1 NDK; 5 μM): (+)
P 24 (HIV-1 NDK; 5 μM): 284 pg/mL and 217 pg/mL
IC50 (HIV-1 NDK; HIV 1 NDK, Table 10): 20 nM
IC100 (HIV-1 NDK; HIV 1 NDK, Table 10): 5 µM
Day 7 syncitia formed (HIV-1 NL 4-3 [2]; 0.005 μM, Table 6): ++/T
syncitia formed, Day 4 (HIV-1 NL 4-3 [2]; 0.01 μM, C8166 cells): −
syncitia formed, Day 5 (HIV-1 NL 4-3 [2]; 0.01 μM, C8166 cells): (+)
syncitia formed, Day 6 (HIV-1 NL 4-3 [2]; 0.01 μM, C8166 cells): +
syncitia formed, Day 7 (HIV-1 NL 4-3 [2]; 0.01 μM, Day 7, C8166 cells): ++
syncitia formed, Day 4 (HIV-1 NL 4-3 [2]; 0.05 μM, C8166 cells): −
syncitia formed, Day 5 (HIV-1 NL 4-3 [2]; 0.05 μM, C8166 cells): −
syncitia formed, Day 6 (HIV-1 NL 4-3 [2]; 0.05 μM, C8166 cells): (+)
syncitia formed, Day 7 (HIV-1 NL 4-3 [2]; 0.05 μM, Day 7, C8166 cells): +
P 24 (HIV-1 NL 4-3 [2]; 0.05 μM, P 24 after Day 7, C8166 cells): 3810 pg/mL and 2300 pg/mL
syncitia formed, Day 4 (HIV-1 NL 4-3 [2]; 0.1 μM, C8166 cells): −
syncitia formed, Day 5 (HIV-1 NL 4-3 [2]; 0.1 μM, C8166 cells): −
syncitia formed, Day 6 (HIV-1 NL 4-3 [2]; 0.1 μM, C8166 cells): (+)
syncitia formed, Day 7 (HIV-1 NL 4-3 [2]; 0.1 μM, Day 7, C8166 cells): +
P 24 (HIV-1 NL 4-3 [2]; 0.1 μM, P 24 after Day 7, C8166 cells): 108 pg/mL and 130 pg/mL
syncitia formed, Day 4 (HIV-1 NL 4-3 [2]; 0.5 μM, C8166 cells): −
syncitia formed, Day 5 (HIV-1 NL 4-3 [2]; 0.5 μM, C8166 cells): −
syncitia formed, Day 6 (HIV-1 NL 4-3 [2]; 0.5 μM, C8166 cells): −
syncitia formed, Day 7 (HIV-1 NL 4-3 [2]; 0.5 μM, Day 7, C8166 cells): (+)
syncitia formed, Day 4 (HIV-1 NL 4-3 [2]; 1 μM, C8166 cells): −
syncitia formed, Day 5 (HIV-1 NL 4-3 [2]; 1 μM, C8166 cells): −
syncitia formed, Day 6 (HIV-1 NL 4-3 [2]; 1 μM, C8166 cells): −
syncitia formed, Day 7 (HIV-1 NL 4-3 [2]; 1 μM, Day 7, C8166 cells): −
P 24 (HIV-1 NL 4-3 [2]; 1 μM, P 24 after Day 7, C8166 cells): 86 pg/mL and 74 pg/mL
syncitia formed, Day 4 (HIV-1 NL 4-3 [2]; 5 μM, C8166 cells): −
syncitia formed, Day 5 (HIV-1 NL 4-3 [2]; 5 μM, C8166 cells): −
syncitia formed, Day 6 (HIV-1 NL 4-3 [2]; 5 μM, C8166 cells): −
syncitia formed, Day 7 (HIV-1 NL 4-3 [2]; 5 μM, Day 7, C8166 cells): −
P 24 (HIV-1 NL 4-3 [2]; 5 μM, P 24 after Day 7, C8166 cells): 60 pg/mL and 34 pg/mL
IC50 (HIV-1 NL 4-3 [2]; [3]): 10 nM
IC100 (HIV-1 NL 4-3 [2]; [3]): 0.5 µM and 1 µM
P 24 (HIV-1 NL 4-3 [2]; Day 7, 0.005 μM, Table 6): 23810 pg/mL
P 24 (HIV-1 NL 4-3 [2]; Day 7, 0.01 μM, Table 6): 11810 pg/mL and 13740 pg/mL
P 24 (HIV-1 NL 4-3 [2]; Day 7, 0.5 μM, Table 6): 3.5 pg/mL and 5.6 pg/mL
P 24 (HIV-1 NL 4-3 [2]; Day 7, 1 μM, Table 6): 5.636 pg/mL and 4.8 pg/mL
P 24 (HIV-1 NL 4-3 [2]; Day 7, 5 μM, Table 6): 5.6 pg/mL and 3.2 pg/mL

Source: patent US20060229433A1, “Modified antiviral peptides with increased activity and cell membrane affinity” (priority 2003, published 2006)
